{
  "source": "patent US20150087037A1",
  "about": "“FERMENTATION PROCESS” (LanzaTech New Zealand Limited, priority 2013, published 2015)",
  "test_system": "branch chain amino acid production",
  "assay": "Monitoring BCAA production during 2-HIBA addition (Example 7)",
  "type": "cell-based, Clostridium autoethanogenum",
  "details": "FIG. 11",
  "source_text": "In order to generate further evidence that 2-HiBA interferes with branch chain amino acid production, the concentrations of these amino acids were monitored directly before and after the addition of 2-HIBA. FIG. 11 illustrates the results; immediately after the addition of 2-HIBA the concentrations of valine, leucine and isoleucine drop as well as biomass.",
  "key": {"[1]": {"details": "over time after 2-HIBA addition"}},
  "data": [
    {"smiles": "CC(C)(O)C(=O)O", "note": "[2-HIBA, 2-hydroxyisobutyric acid]", "values": [
      {"measurement": "concentrations of valine, leucine and isoleucine and biomass", "setting": "immediately after the addition of 2-HIBA (100 mg, 0.96 mM)", "result": "drop"},
      {"measurement": "concentration of isoleucine", "setting": "[1]", "result": "appears to recover"},
      {"measurement": "concentration of leucine and valine", "setting": "[1]", "result": "remaining lower than the value before 2-HIBA addition"}
    ]}
  ]
}
